Columns and labels:
[1] = system: Herpes simplex virus type 1 (HSV-1); assay: Antiviral activity against HSV-1, viral plaque reduction (ED50); type: cell-based; conditions: FIG. 13; deoxyguanosine with MMdCyd
Protocol: Infected cells were treated with different concentrations of MMdCyd and the concentration required to reduce viral plaque formation by 50%, i.e. ED50, was determined.
^a ED50 : Concentration required to reduce viral plaque formatio
Vero cells were infected with the KOS strain of HSV-1. The compound of compounds indicated in Table 2, below, and are shown graphically in FIGS. 1, (H4 dUrd) and 2 (H4 Urd).
^a Antiviral assays were carried out using Vero cells. All compounds
were added immediately after virus infection.
The antiviral activity of MMdCyd in the presence of H4 dUrd was determined against several strains of HSV-1 and HSV-2.
Vero cells were infected with HSV-1, strain 76 and treated with MMdCyd at different times post virus infection.
The antiviral activity, ^a cyctotoxicity* and antiviral indices of MMdCyd in the presence of H4 dUrd, dGuo and H4 dUrd+dGuo were determined.
^a Antiviral assays were carried out using Vero cells. Compounds were
added immediately after virus infection. Virus HSV1, strains KOS and 76;
KOS, virus input = 50 PFU

[2] = system: Deoxynucleoside Triphosphate (dNTP) Pools in Uninfected Vero Cells; assay: Deoxynucleoside triphosphate (dNTP) pools in uninfected (mock-infected) Vero cells; type: cell-based; conditions: Table 10, uninfected
Protocol: Vero cells were treated with MMdCyd, H4 dUrd and MMdCyd+H4 dUrd. The cells were then assayed for the presence of deoxynucleoside triphosphates. Untreated Vero cells were also assayed for the presence of deoxynucleoside triphosphates, to provide a control.
^a Cells were mock infected for one hour. Different treatments were
^b Values are means of at least two assays of triplicate cell
(§1) Vero cells and HSV-infected Vero cells were treated with dGUO and dGUO and H4 dUrd. The cells were then assayed for the presence of deoxynucleoside triphosphates. Untreated Vero cells were also assayed for the presence of deoxynucleoside triphophate to provide a control.
Vero cells were treated with N-methyl-MMdCyd. The cells were then assayed for dNTP pools.

[3] = system: Deoxynucleoside Triphosphate (dNTP) Pools in Vero Cells Infected with Herpes Simplex Virus Type 1; assay: Deoxynucleoside triphosphate (dNTP) pools in HSV-1 infected Vero cells; type: cell-based; conditions: Table 10, HSV-infected
Protocol: Example 9 was repeated, except that the Vero cells subjected to the treatment had all been infected with HSV-1 KOS strain prior to the treatment.
^a Cells were infected with 10 PFU/cell of HSV1 KOS strain for one
hour. Treatments were given for seven hours.
^a Cells were infected with 10 PFU/cell of HSV1, KOS strain after
^b H4 dUrd in MEM was added immediately after adsorption and
^c H4 dUrd in MEM was added immediately after adsorption and
as §1
^c Cells were infected with 10 PFU/cell of HSV1 strain KOS for one

[4] = system: Herpes simplex virus type 1 (HSV-1); assay: Antiviral activity against HSV-1, viral plaque reduction (ED50); type: cell-based; conditions: FIG. 13; HSV-1 KOS and 76, Vero, 20 PFU
[5] = Survival and viability of Vero cells; conditions: monkey, vero cells
Protocol: (§2) The survival and viability of Vero cells grown in the presence of 2'-deoxyguanosine, H4 dUrd and deoxyguanosine+H4 dUrd was determined.

[6] = system: Vero cells; assay: Survival and viability of Vero cells; conditions: up to 250 μM, rapidly dividing Vero cells
Protocol: as §2

In the case of `Nc1nc2c(ncn2[C@H]2C[C@H](O)[C@@H](CO)O2)c(=O)[nH]1` [dGuo, 2'-deoxyguanosine], the “concentration giving maximal increase in antiherpes activity of MMdCyd” value [1] is reported as 100 µM, the dATP pool ([2]; dGUO 25 μM) is reported as 18 .rho.moles/10^6 cells and the dCTP pool ([2]; dGUO 25 μM) is reported as 13 .rho.moles/10^6 cells. The dGTP pool ([2]; dGUO 25 μM) was 42 .rho.moles/10^6 cells, the dTTP pool ([2]; dGUO 25 μM) was 17 .rho.moles/10^6 cells and the dATP pool ([2]; dGUO 50 μM) was 19 .rho.moles/10^6 cells. For the same molecule, the dCTP pool ([2]; dGUO 50 μM) was 9 .rho.moles/10^6 cells, the dGTP pool ([2]; dGUO 50 μM) was 88 .rho.moles/10^6 cells and the dTTP pool ([2]; dGUO 50 μM) was 10 .rho.moles/10^6 cells. For the same molecule, the dATP pool ([2]; dGUO 100 μM) was 19 .rho.moles/10^6 cells, the dCTP pool ([2]; dGUO 100 μM) was 11 .rho.moles/10^6 cells and the dGTP pool ([2]; dGUO 100 μM) was 76 .rho.moles/10^6 cells. The dTTP pool ([2]; dGUO 100 μM) was 13 .rho.moles/10^6 cells, the dATP pool ([2]; dGUO 250 μM) was 29 .rho.moles/10^6 cells and the dCTP pool ([2]; dGUO 250 μM) was 8 .rho.moles/10^6 cells. The dGTP pool ([2]; dGUO 250 μM) was 102 .rho.moles/10^6 cells, the dTTP pool ([2]; dGUO 250 μM) was 13 .rho.moles/10^6 cells and the dATP pool ([2]; dGUO 500 μM) was 19 .rho.moles/10^6 cells. The dCTP pool ([2]; dGUO 500 μM) was 7 .rho.moles/10^6 cells, the dGTP pool ([2]; dGUO 500 μM) was 146 .rho.moles/10^6 cells and the dTTP pool ([2]; dGUO 500 μM) was 6 .rho.moles/10^6 cells. For the same molecule, the dATP pool ([3]; dGUO 25 μM) was 12 .rho.moles/10^6 cells, the dCTP pool ([3]; dGUO 25 μM) was 23 .rho.moles/10^6 cells and the dGTP pool ([3]; dGUO 25 μM) was 290 .rho.moles/10^6 cells. For the same molecule, the dTTP pool ([3]; dGUO 25 μM) was 110 .rho.moles/10^6 cells, the dATP pool ([3]; dGUO 50 μM) was 12 .rho.moles/10^6 cells and the dCTP pool ([3]; dGUO 50 μM) was 33 .rho.moles/10^6 cells. The dGTP pool ([3]; dGUO 50 μM) was 373 .rho.moles/10^6 cells, the dTTP pool ([3]; dGUO 50 μM) was 118 .rho.moles/10^6 cells and the dATP pool ([3]; dGUO 100 μM) was 12 .rho.moles/10^6 cells. The dCTP pool ([3]; dGUO 100 μM) was 64 .rho.moles/10^6 cells, the dGTP pool ([3]; dGUO 100 μM) was 600 .rho.moles/10^6 cells and the dTTP pool ([3]; dGUO 100 μM) was 214 .rho.moles/10^6 cells. For the same molecule, the dATP pool ([3]; dGUO 250 μM) was 14 .rho.moles/10^6 cells, the dCTP pool ([3]; dGUO 250 μM) was 78 .rho.moles/10^6 cells and the dGTP pool ([3]; dGUO 250 μM) was 558 .rho.moles/10^6 cells. The dTTP pool ([3]; dGUO 250 μM) was 233 .rho.moles/10^6 cells, the dATP pool ([3]; dGUO 500 μM) was 25 .rho.moles/10^6 cells and the dCTP pool ([3]; dGUO 500 μM) was 60 .rho.moles/10^6 cells. For the same molecule, the dGTP pool ([3]; dGUO 500 μM) was 738 .rho.moles/10^6 cells, the dTTP pool ([3]; dGUO 500 μM) was 247 .rho.moles/10^6 cells and the “effect on antiviral activity of MMdCyd” value [4] was “markedly potentiated”. It also gave a viability at 25 µM [5] of 100%, a viability at 50 µM [5] of 100% and a viability at 100 µM [5] of 100%. The viability at 250 µM [5] was 100%, the viability at 500 µM [5] was 88% and the viability at 1000 µM [5] was 63%. The cytotoxicity [6] was “devoid of cytotoxicity”.

From patent US4990499A, “Anti-herpes simplex virus activity of 5-alkoxymethyl-2'-deoxycytidimes and their 5-monophosphates” (priority 1989, dated 1991)
